{"source": "patent US20230270718A1", "about": "“METHODS OF TREATING DIABETIC KIDNEY DISEASE” (Chinook Therapeutics, Inc., priority 2020, published 2023)", "key": {"DKD patients [1]": {"test_system": "DKD patients", "experiment": "SONAR study, six week enrichment period, analyses by concomitant SGLT-2 inhibitor use", "format": "in vivo, human", "design": "key to UACR Final, Median / UACR Change, Median: UACR values in mg/g", "conditions": "for B-type Natriuretic Peptide, change: geometric mean; for UACR Change, Mean (SD) / UACR Change, Median / UACR Final, Mean (SD) / UACR Final, Median: enrichment atrasentan", "description": "A double-blind, randomized, placebo-controlled trial of DKD patients was conducted at 689 sites in 41 countries. The trial was conducted in two phases, an enrichment period and a double-blind treatment period. For the enrichment period, eligible patients were 18-85 years old with type 2 diabetes, an estimated glomerular filtration rate (eGFR) of 25-75 mL/min per 1.73 m^2 of body surface area, a urine albumin-to-creatinine ratio (UACR) of 300-5000 mg/g, a serum albumin of at least 25 g/L, a brain natriuretic peptide (BNP) concentration (level) of no more than 200 pg/mL, a serum potassium of at least 3 to 5 mmol/L, and systolic blood pressure of 110-180 mm Hg. The patients were required to receive a stable, recommended or maximally tolerated dose of an ACE inhibitor or ARB for at least four weeks prior to beginning the enrichment period. Patients also received a diuretic prior to beginning the enrichment period. Exclusion criteria included: a diagnosis of or previous hospital admission for heart failure, a history of severe peripheral or facial edema, diagnosis of type 1 diabetes, history of pulmonary hypertension, pulmonary fibrosis, or any lung diseases requiring oxygen therapy, and known non-diabetic kidney disease. See Heerspink et al., Lancet 393:1937-1947 (2019).\nSee Heerspink et al., Diabetes Obes Metab., 20:1829-1835 (2018). 42 responder patients and 9 patients in the non-responder group had used a SGLT-2 inhibitor at the start of enrichment. […] It was concluded that the UACR reduction was consistent in both groups.\nReferring to the following Table 1, case-control matched cohort data from the study is shown.\nSGLT-2 inhibitors included canagliflozin (N=6), empagliflozin (N=4), dapagliflozin (N=3), and luseogliflozin (N=1).\nChange in body weight was used as a surrogate for fluid retention. See, e.g., Hoekman, et al., Clin. J. Am. Soc. Nephrol. 2013; 9(3):490-498. The change in BNP was monitored as an additional surrogate for fluid retention (each 1 kg increase in body weight during the enrichment period was associated with a 7.3% increase in BNP (p-value<0.001))."}, "DKD patients [2]": {"test_system": "DKD patients", "conditions": "enrichment period, cited from earlier work"}, "DKD patients [3]": {"test_system": "DKD patients", "conditions": "cited from earlier work"}, "[4]": {"conditions": "Table 2, case-control matched cohort (N = 14 vs N = 42), enrichment period"}, "[5]": {"conditions": "Table 5, combination matched cohort (N = 14 vs N = 42), enrichment period"}, "[6]": {"conditions": "Table 6, combination (N = 14) vs all atrasentan alone subjects (N = 5093), enrichment period"}, "[7]": {"conditions": "No prior or concomitant SGLT2, N 4768"}, "[8]": {"conditions": "Prior and concomitant sGLT2, N 5"}, "[9]": {"conditions": "atrasentan group, treatment period"}, "[10]": {"conditions": "of 1,325 patients, atrasentan 0.75 mg orally daily"}, "[11]": {"conditions": "of 1,325 responders, atrasentan 0.75 mg orally daily, median follow-up 2.2 years"}}, "note": "Read-outs that look alike come from different tables or passages of the source.", "data": [{"compound": "CCCCN(CCCC)C(=O)CN1C[C@H](c2ccc3c(c2)OCO3)[C@@H](C(=O)O)[C@@H]1c1ccc(OC)cc1", "note": "[Atrasentan, (2R,3R,4S)-4-(1,3-benzodioxol-5-yl)-1-[2-(dibutylamino)-2-oxoethyl]-2-(4-methoxyphenyl)pyrrolidine-3-carboxylic acid]", "values": [{"measurement": "Change in B-type Natriuretic Peptide (fluid retention)", "setting": "DKD patients [1]; [4]", "result": 6.9, "unit": "%"}, {"measurement": "Change in Systolic Blood Pressure (renal efficacy)", "setting": "DKD patients [1]; [4]", "result": "−9.2", "unit": "mmHg"}, {"measurement": "Change in body weight (fluid retention)", "setting": "DKD patients [1]; [4]", "result": 1.1, "unit": "kg"}, {"measurement": "Change in eGFR (renal efficacy)", "setting": "DKD patients [1]; [4]", "result": "−0.6", "unit": "ml/min/1.73 m^2"}, {"measurement": "Change in hematocrit (fluid retention)", "setting": "DKD patients [1]; [4]", "result": "−2.5", "unit": "%"}, {"measurement": "Change in hemoglobin (fluid retention)", "setting": "DKD patients [1]; [4]", "result": -0.9, "unit": "g/dL"}, {"measurement": "Body weight, change", "setting": "DKD patients [1]; [5]", "result": 0.6, "unit": "kg"}, {"measurement": "Systolic Blood Pressure, change", "setting": "DKD patients [1]; [5]", "result": "−6.7", "unit": "mmHg"}, {"measurement": "eGFR, change", "setting": "DKD patients [1]; [5]", "result": "−2.1", "unit": "ml/min/1.73 m^2"}, {"measurement": "B-type Natriuretic Peptide, change", "setting": "DKD patients [1]; [5]", "result": 5.1, "unit": "%"}, {"measurement": "Body weight, change", "setting": "DKD patients [1]; [6]", "result": 0.6, "unit": "kg"}, {"measurement": "Systolic Blood Pressure, change", "setting": "DKD patients [1]; [6]", "result": "−4.7", "unit": "mmHg"}, {"measurement": "eGFR, change", "setting": "DKD patients [1]; [6]", "result": "−1.0", "unit": "ml/min/1.73 m^2"}, {"measurement": "B-type Natriuretic Peptide, change", "setting": "DKD patients [1]; [6]", "result": 8.3, "unit": "%"}, {"measurement": "body weight increased by", "setting": "DKD patients [1]; after six weeks, matched cohort, atrasentan alone", "result": 0.6, "unit": "kg"}, {"measurement": "UACR Change, Mean (SD)", "setting": "DKD patients [1]; Concomitant sGLT2 only, N 64", "result": "−469.92 (680.739)"}, {"measurement": "UACR Change, Median", "setting": "DKD patients [1]; Concomitant sGLT2 only, N 64", "result": "−311.00"}, {"measurement": "UACR Final, Mean (SD)", "setting": "DKD patients [1]; Concomitant sGLT2 only, N 64", "result": "809.47 (956.422)"}, {"measurement": "UACR Final, Median", "setting": "DKD patients [1]; Concomitant sGLT2 only, N 64", "result": 437.50}, {"measurement": "UACR Change, Mean (SD)", "setting": "DKD patients [1]; [7]", "result": "−365.00 (1213.365)"}, {"measurement": "UACR Change, Median", "setting": "DKD patients [1]; [7]", "result": "−257.00"}, {"measurement": "UACR Final, Mean (SD)", "setting": "DKD patients [1]; [7]", "result": "891.95 (1352.518)"}, {"measurement": "UACR Final, Median", "setting": "DKD patients [1]; [7]", "result": 540.16}, {"measurement": "UACR Change, Mean (SD)", "setting": "DKD patients [1]; Prior SGLT2 only, N 6", "result": "−97.80 (194.266)"}, {"measurement": "UACR Change, Median", "setting": "DKD patients [1]; Prior SGLT2 only, N 6", "result": "−101.00"}, {"measurement": "UACR Final, Mean (SD)", "setting": "DKD patients [1]; Prior SGLT2 only, N 6", "result": "1457.19 (1448.751)"}, {"measurement": "UACR Final, Median", "setting": "DKD patients [1]; Prior SGLT2 only, N 6", "result": 939.56}, {"measurement": "UACR Change, Mean (SD)", "setting": "DKD patients [1]; [8]", "result": "−109.71 (366.699)"}, {"measurement": "UACR Change, Median", "setting": "DKD patients [1]; [8]", "result": "−261.00"}, {"measurement": "UACR Final, Mean (SD)", "setting": "DKD patients [1]; [8]", "result": "379.37 (556.751)"}, {"measurement": "UACR Final, Median", "setting": "DKD patients [1]; [8]", "result": 136.00}, {"measurement": "change in UACR from baseline", "setting": "DKD patients [2]; non-responders, with concomitant SGLT-2 inhibitor use", "result": "+10.4%"}, {"measurement": "change in UACR from baseline", "setting": "DKD patients [2]; non-responders, without concomitant SGLT-2 inhibitor use", "result": "−1.3", "unit": "%"}, {"measurement": "change in UACR from baseline", "setting": "DKD patients [2]; responders, with concomitant SGLT-2 inhibitor use", "result": "−53.2", "unit": "%"}, {"measurement": "change in UACR from baseline", "setting": "DKD patients [2]; responders, without concomitant SGLT-2 inhibitor use", "result": "−48.8", "unit": "%"}, {"measurement": "fluid retention and anemia adverse events", "setting": "DKD patients [3]; atrasentan group compared with placebo group", "result": "more frequent"}, {"measurement": "patients who died, number", "setting": "DKD patients [3]; [9]", "result": 58, "unit": "patients"}, {"measurement": "patients who died, percent", "setting": "DKD patients [3]; [9]", "result": 4.4, "unit": "%"}, {"measurement": "hospital admission for heart failure, number of patients", "setting": "DKD patients [3]; [10]", "result": 47, "unit": "patients"}, {"measurement": "hospital admission for heart failure, percent of patients", "setting": "DKD patients [3]; [10]", "result": 3.5, "unit": "%"}, {"measurement": "patients with a primary composite renal endpoint event (doubling of serum creatinine or ESRD), number", "setting": "DKD patients [3]; [11]", "result": 79, "unit": "patients"}, {"measurement": "patients with a primary composite renal endpoint event (doubling of serum creatinine or ESRD), percent", "setting": "DKD patients [3]; [11]", "result": 6.0, "unit": "%"}]}]}
